Assay results: patent publication US7371372B2, “Compositions comprising IMPDH inhibitors and uses thereof for treating HCV infection” (Vertex Pharmaceuticals Incorporated, priority 2004, dated 2008)
In brackets after ≈: the same amount, converted by molar mass. Like-named read-outs stand apart in the source and are kept apart here. Marks after values point to notes of the source that are not given here.

Columns and labels:
[1] = system: HCV; conditions: 1000 mg BID with PEGASYS, cited from earlier work
[2] = system: peripheral blood lymphocytes (PBLs); assay: anti-proliferative activity (IC50ap): inhibition of proliferation of peripheral blood lymphocytes; type: cell-based; conditions: for IC50: Lymphocyte
Description: Our algorithm predicts that there exists an optimal balance between the antiproliferative activity and the antiviral activity for ribavirin in combination with IFN. […] Per our algorithm described above, a “conversion factor” of 12.25 needs to be applied to the APQ to account for antiviral effects as distinct from the antiproliferative effects of ribavirin. Thus the corrected APQ (i.e. AAQ) for ribavirin ranges from 0.3 to 1.6.

[3] = anti-viral activity (IC50av); type: cell-based; conditions: for IC50: read-out: IC50av
Description: The ratio of IC50av/IC50ap is the Conversion Factor (“CV”), useful in converting an anti-proliferative response into an anti-viral response.

[4] = cited from earlier work; for Cmin: estimated from Brunet et al.
[5] = system: IMPDH; conditions: estimated from Brunet et al.; cited from earlier work
[6] = plasma concentrations Cavg and Cmin of the IMPDH inhibitor in human; type: in vivo
Description: An optimal composition according to the present invention comprises alpha-interferon or a derivative thereof, an IMPDH inhibitor and a pharmaceutical carrier, wherein said IMPDH inhibitor is present in said composition in an amount such that a ratio of Cavg/Cmin is between 1 to 10; • wherein: • Cavg is average steady-state plasma concentration produced by said IMPDH inhibitor in said human; and • Cmin is estimated trough concentration produced by said IMPDH inhibitor in said human.
Cavg is equal to AUC/T, wherein AUC is the area under the plasma concentration-time curve during a dosing interval of time T. Cavg and Cmin are readily determined by known techniques in the art. See, e.g., Gibaldi, M. and Perrier, D., Pharmacokinetics, 2nd Ed., Marcel Dekker, Inc. (1982); Khakoo, S. et al., Br. J. Clin. Pharmacol.46, pp. 563-570 (1998); Glue, P., Sem. Liver. Dis. 19, pp. 17-24 (1999).

[7] = system: HCV; conditions: cited from earlier work; for sustained response (SR): IFN + ribavirin, two phase III trials; for HCV RNA drop: Ribavirin 600 mg BID with INTRON A, SR data from McHutchison and Poynard (1999)
[8] = system: HCV; assay: Interferon alpha 2b (INTRON A) and VX-497 in naive HCV patients, four week study (VX-497-003); type: in vivo, human; conditions: for % HCV RNA drop: genotype 1 naive patients
Description: Given the lower FQ for RBV in table 2 above, once again a surprising result of lower FQ giving better antiviral effects is seen.

[9] = Ribavirin 200 mg BID, estimated from literature kinetics
[10] = Ribavirin 400 mg BID, estimated from literature kinetics

In the case of `COc1c(C)c2c(c(O)c1C/C=C(\C)CCC(=O)OCCN1CCOCC1)C(=O)OC2` [mycophenolate mofetil], the “proportion of patients achieving significant antiviral effects, compared to PEGASYS and RBV” value ([1]; four-week analysis) is listed as “lower proportion of patients achieving significant antiviral effects”.
In the case of `COc1c(C)c2c(c(O)c1C/C=C(\C)CCC(=O)O)C(=O)OC2` [MPA, mycophenolic acid], the IC50 ([2]; in vitro, read-out: IC50ap (ng/mL) in vitro) is given as 32 ng/mL, the IC50 ([3]; anti-viral activity, micromolar IC50 converted to ng/mL using molecular weight of 320) is given as 0.122 µg/mL (≈ 0.381 µM) and the Cmin ([4]; MPA 500 mg BID) is given as 1630 ng/mL. The Cavg ([4]; MPA 500 mg BID, from Brunet et al.) was 3163 ng/mL, the Cmin ([4]; MPA 750 mg BID) was 1400 ng/mL and the Cavg ([4]; MPA 750 mg BID, from Brunet et al.) was 3425 ng/mL. The Cmin ([4]; MPA 1000 mg BID) was 2060 ng/mL, the Cavg ([4]; MPA 1000 mg BID, median AUC(0-t)/dosing interval from Brunet et al.) was 3869 ng/mL and the “% HCV RNA drop” value ([1]; non-responders to REBETRON with 90% genotype 1 patients) was 31^a, %. The “% HCV RNA drop” value ([1]; relapsers on REBETRON with 79% genotype 1 patients) was 72^b % and the “IC50ap (ng/mL) in vivo” value [5] was 10800 ng/mL (≈ 33.7 µM).
For `NC(=O)c1ncn([C@@H]2O[C@H](CO)[C@@H](O)[C@H]2O)n1` [Ribavirin, ribavirin], the IC50 ([2]; read-out: IC50ap) was 976 ng/mL, the IC50 [3] was 12 µg/mL (≈ 49 µM) and the Cavg [6, 9] was 3542 ng/mL. It also gave a Cmin [6, 9] of 740 ng/mL, a Cavg [6, 10] of 7083 ng/mL and a Cmin [6, 10] of 1450 ng/mL. For the same compound, the Cmin ([6]; Ribavirin 600 mg BID, estimated from literature kinetics) was 2250 ng/mL, the Cavg ([6]; Ribavirin 600 mg BID, estimated from single dose kinetics (Glue) and accumulation factor (Khakoo), AUC(0-t)/dosing interval) was 19000 ng/mL and the “sustained response (SR)” value ([7]; genotype 1 patients) was “around 30%”. For the same compound, the “sustained response (SR)” value ([7]; non-genotype 1 patients) was about 60%, the hemolytic anemia ([7]; MTD of ribavirin) was “significant hemolytic anemia” and the “HCV RNA drop” value ([7]; genotype 1) was 30%^a,. For the same compound, the “HCV RNA drop” value ([7]; non-genotype 1) was 60%^b and the “change in SR on dropping the ribavirin dose by one-half” value ([7]; to 600 mg daily, with IFN) was “no significant change in SR”.
In the case of `COc1cc(NC(=O)Nc2cccc(CNC(=O)O[C@H]3CCOC3)c2)ccc1-c1cnco1` [VX-497], the IC50ap [2] is reported as 0.045 µg/mL, the IC50av ([3]; anti-viral activity, micromolar IC50 converted to ng/mL using molecular weight 452) is reported as 0.14 µg/mL (≈ 0.309 µM) and the “% HCV RNA drop” value ([8]; VX-497 100 mg TID with INTRON A for 4 weeks) is reported as 53%. For the same compound, the “% HCV RNA drop” value ([8]; VX-497 300 mg TID with INTRON A for 4 weeks) was 50% and the “reduction in viral load, 100 mg TID compared with 300 mg TID” value ([8]; with 3 MU IFN alpha 2b tiw, four weeks, baseline HCV RNA as covariate) was “higher reduction in viral load”.
